Patent US20080057047A1, “Use of bacillus amyloliquefaciens PB6 for the prophylaxis or treatment of gastrointestinal and immuno-related diseases” (priority 2005, published 2008)
In brackets after ≈: the same amount, converted by molar mass. Read-outs that look alike come from different tables or passages of the source. Numbered stars: 1 amine (or outer) side, 2 acyl side, 3 side chain; on linkers, the order of the positions; unused ones are H or OH. Bridge positions count the residues as written; N and C are the ends. Square brackets hold non-standard residues; d marks the D form. Peptide text beside a SMILES is read from it. X1 = CC(C)CCCCCCCCC[C@H](CC(=O)[*:1])O[*:2]

Columns and labels:
TNBS-induced colitis = TNBS-induced colitis in rats; assay type: in vivo, Wistar rats; conditions: for number of observations of diarrhea recorded / number of animals affected by diarrhea: day 1 to 7
Source text: Two consecutive trials were done. Male Wistar rats were obtained from the National Centre for Laboratory Animal Sciences (Hyderabad, India) (trial 1) or from the Department of Animal Medicine, […], India) (trial 2). […] Upon their arrival at the test facility, the animals were given a complete clinical examination under the supervision of a veterinarian to ensure that they were in good condition. The animals were acclimatized to the study conditions for a period of at least 7 days. Per trial, animals were randomised and allocated to one of the study groups. […] All animals had free access (except for the overnight fasting prior to TNBS administration) to rat pellet feed from the National Institute of Nutrition (NIN, Hyderabad, India) and Aquaguard purified water ad libitum. In both trials the day of induction of colitis was set as day 1. […] The colitis-negative control groups were given saline intrarectally (0.5 ml per animal once) on day 1. […] Except for infliximab, which was injected intravenously^59, all treatments were administered by gavage. Twice daily observations were made for clinical signs and mortality. […] These segments were opened longitudinally. […] Mesalazine (Mesacol®, Sun Pharmaceutical Ind. Ltd, Mumbai, India) tablets were powdered using pestle and mortar and a solution in distilled water was prepared containing 25 mg 5-aminosalicylic acid per ml. […] Remicade® (Infliximab) (Centocor B. V., Leiden, The Netherlands) was first reconstituted with 10 ml water for injection and was further diluted to 2 mg/ml concentration using saline. […] All body weight dependant doses were administered on the basis of the last individual body weight taken. Fresh preparations were made prior to each administration. The preparations were stirred vigorously before each dosing.

[1] = tested on: Clostridium difficile ATCC 9689; assay: Clindamycin-induced CDAD hamster model; assay type: in vivo, Golden Syrian hamsters; conditions: for diarrhea score / Number of animals with diarrhea: vancomycin 50 mg/Kg oral once daily days 2-6; for Number of animals tested positive for C difficile toxins A or B in faeces: vancomycin
C. perfringens ATCC13124 = assay: microbe, parasite or virus in culture; assay type: cell-based; conditions: Clostridium perfringens, ATCC13124, 18 h
Clostridium perfringens = assay: microbe, parasite or virus in culture; assay type: cell-based
cytosolic PLA2 = target: T1, cytosolic PLA2 (Homo sapiens, UniProt P47712); conditions: known from literature; cited from earlier work
T1 sequence (P47712 1-749): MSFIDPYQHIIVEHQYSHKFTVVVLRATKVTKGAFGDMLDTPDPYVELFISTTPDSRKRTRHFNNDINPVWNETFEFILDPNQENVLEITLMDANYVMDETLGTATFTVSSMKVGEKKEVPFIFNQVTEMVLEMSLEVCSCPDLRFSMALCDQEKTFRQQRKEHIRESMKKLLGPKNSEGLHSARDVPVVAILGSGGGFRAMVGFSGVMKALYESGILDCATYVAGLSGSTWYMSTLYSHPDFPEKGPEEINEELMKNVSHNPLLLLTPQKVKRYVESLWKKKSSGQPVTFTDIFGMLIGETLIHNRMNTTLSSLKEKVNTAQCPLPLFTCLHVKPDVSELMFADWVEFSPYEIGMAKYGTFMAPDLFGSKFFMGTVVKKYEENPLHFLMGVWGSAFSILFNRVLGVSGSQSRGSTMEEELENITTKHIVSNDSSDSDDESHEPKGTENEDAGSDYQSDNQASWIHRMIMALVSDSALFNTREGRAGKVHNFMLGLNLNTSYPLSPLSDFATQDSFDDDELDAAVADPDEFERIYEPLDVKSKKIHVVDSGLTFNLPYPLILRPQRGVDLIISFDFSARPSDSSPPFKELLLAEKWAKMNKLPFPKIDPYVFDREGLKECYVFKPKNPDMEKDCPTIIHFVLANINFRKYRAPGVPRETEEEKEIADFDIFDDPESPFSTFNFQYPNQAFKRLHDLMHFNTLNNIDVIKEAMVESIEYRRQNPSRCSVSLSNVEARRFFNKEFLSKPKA

[2] = Immune response (phagocytosis) in male broilers; assay type: in vivo; conditions: 100 mg/kg zinc bacitracin
[3] = Trial 1, Day 1 (baseline), mesalazine 250 mg/Kg/day, infliximab 3 mg/Kg single i.v. dose
[4] = Trial 1, Day 1 to 7, mesalazine 250 mg/Kg/day, infliximab 3 mg/Kg single i.v. dose
[5] = Trial 1, Day 4, mesalazine 250 mg/Kg/day, infliximab 3 mg/Kg single i.v. dose
[6] = Trial 1, Day 7, mesalazine 250 mg/Kg/day, infliximab 3 mg/Kg single i.v. dose
[7] = Trial 1, scale 0-5, mesalazine 250 mg/Kg/day, infliximab 3 mg/Kg single i.v. dose
[8] = Trial 1, mesalazine 250 mg/Kg/day, infliximab 3 mg/Kg single i.v. dose
[9] = Trial 2, Day 1 (baseline), PB6 and S. boulardii 1.5 10^8 CFU/Kg 3 times daily, mesalazine 250 mg/Kg/day, infliximab 3 mg/Kg single dose
[10] = Trial 2, Day 1 to 7, doses as for Day 1
[11] = Trial 2, Day 4, doses as for Day 1
[12] = Trial 2, Day 7, doses as for Day 1
[13] = Trial 2, scale 0-5, PB6 and S. boulardii 1.5 10^8 CFU/Kg 3 times daily, mesalazine 250 mg/Kg/day, infliximab 3 mg/Kg single dose
[14] = Trial 2, PB6 and S. boulardii 1.5 10^8 CFU/Kg 3 times daily, mesalazine 250 mg/Kg/day, infliximab 3 mg/Kg single dose
[15] = first trial, mesalazine 250 mg/Kg/day, infliximab 3 mg/Kg single dose
[16] = second trial, PB6 and S. boulardii 3×1.5 10^8 CFU/Kg/day, mesalazine 250 mg/Kg/day, infliximab 3 mg/Kg single dose
[17] = trial 1, one individual rat, infliximab 3 mg/Kg

| Molecule | Av. Body weight (TNBS-induced colitis; [3]) [g] | Av. Body weight gain (%) (TNBS-induced colitis; [4]) | Av. Body weight (TNBS-induced colitis; [5]) [g] | Av. Body weight (TNBS-induced colitis; [6]) [g] | Gross morphology score (TNBS-induced colitis; [7]) | Wet weight (g) of a 5 cm colon segment (TNBS-induced colitis; [8]) | Av. Body weight (TNBS-induced colitis; [9]) [g] | Av. Body weight gain (%) (TNBS-induced colitis; [10]) | Av. Body weight (TNBS-induced colitis; [11]) [g] | Av. Body weight (TNBS-induced colitis; [12]) [g] | Gross morphology score (TNBS-induced colitis; [13]) | Wet weight (g) of a 5 cm colon segment (TNBS-induced colitis; [14]) [g] | number of observations of diarrhea recorded (TNBS-induced colitis; [15]) | number of animals affected by diarrhea (TNBS-induced colitis; [16]) | number of observations of diarrhea recorded (TNBS-induced colitis; [16]) | also measured |
| --- | --- | --- | --- | --- | --- | --- | --- | --- | --- | --- | --- | --- | --- | --- | --- | --- |
| Nc1ccc(O)c(C(=O)O)c1 [Mesalazine, 5-aminosalicylic acid] | 181 ± 11 | 8.8 ± 1.4 | 187 ± 10 | 196 ± 10 | 0.8 ± 0.4 | 0.435 ± 0.052 g | 207 ± 12 | −3.3 ± 5.5 | 199 ± 18 | 201 ± 20 | 1.2 ± 0.8 | 0.445 ± 0.145 | 0 | 1 | 12 |  |
| CN[C@H](CC(C)C)C(=O)N[C@H]1C(=O)N[C@@H](CC(N)=O)C(=O)N[C@H]2C(=O)N[C@H]3C(=O)N[C@H](C(=O)N[C@H](C(=O)O)c4cc(O)cc(O)c4-c4cc3ccc4O)[C@H](O)c3ccc(c(Cl)c3)Oc3cc2cc(c3O[C@@H]2O[C@H](CO)[C@@H](O)[C@H](O)[C@H]2O[C@H]2C[C@](C)(N)[C@H](O)[C@H](C)O2)Oc2ccc(cc2Cl)[C@H]1O [Vancomycin, vancomycin] |  |  |  |  |  |  |  |  |  |  |  |  |  |  |  | Average body weight ([1]; Day 0 (baseline), CDAD induced, vancomycin 50 mg/Kg): 218.0 ± 4.6 g; diarrhea score ([1]; Day 1): +; Number of animals with diarrhea ([1]; Day 1, 6 animals): 1; Number of animals tested positive for C difficile toxins A or B in faeces ([1]; Day 1, 6 tested): 0; Number of animals with diarrhea ([1]; Day 2): 2; diarrhea score ([1]; Day 2): ++; Number of animals tested positive for C difficile toxins A or B in faeces ([1]; Day 2, 6 tested): 2; Number of animals with diarrhea ([1]; Day 3): 2; diarrhea score ([1]; Day 3): +++; Number of animals tested positive for C difficile toxins A or B in faeces ([1]; Day 7, 4 tested): 1; Survival at end of treatment period ([1]; day 6, vancomycin 50 mg/Kg once daily): 4 out of 6 |
| CC(C)CCCCCCCCC[C@@H]1CC(=O)N[C@@H](CCC(=O)O)C(=O)N[C@@H](CC(C)C)C(=O)N[C@H](CC(C)C)C(=O)N[C@@H](C(C)C)C(=O)N[C@@H](CC(=O)O)C(=O)N[C@H](CC(C)C)C(=O)N[C@@H](CC(C)C)C(=O)O1 [surfactin] (EL[dL]VD[dL]L; linker N-C via X1) |  |  |  |  |  |  |  |  |  |  |  |  |  |  |  | MIC (C. perfringens ATCC13124): 10 to 25 µg/mL (≈ 9.65 to 24.1 µM); MIC (Clostridium perfringens; read-out: MIC (C. perfringens), 30′ 0.1 N HCl, 37° C.): 10 to 25 µg/mL (≈ 9.65 to 24.1 µM); MIC (Clostridium perfringens; read-out: MIC (C. perfringens), 60′ 0.1 N HCl, 37° C.): 25 to 50 µg/mL (≈ 24.1 to 48.2 µM); MIC (Clostridium perfringens; read-out: MIC (C. perfringens), 90′ 0.1 N HCl, 37° C.): 25 to 50 µg/mL (≈ 24.1 to 48.2 µM); MIC (Clostridium perfringens; read-out: MIC (C. perfringens), No HCL): 1 to 10 µg/mL (≈ 0.965 to 9.65 µM); inhibition of the activity of cytosolic PLA2 (cytosolic PLA2): inhibits |
| Infliximab: Remicade® (Infliximab), Centocor, standard drug | 180 ± 14 | 1.3 ± 5.4 | 183 ± 7 | 186 ± 6 | 3.0 ± 1.4 | 1.055 ± 0.490‘ g | 208 ± 15 | −5.2 ± 3.4 | 197 ± 14 | 197 ± 13 | 2.0 ± 0.7 | 0.657 ± 0.076 | 8 | 2 | 24 | number of animals affected by diarrhea (TNBS-induced colitis; first trial, infliximab 3 mg/Kg single dose): 1; colon segment weight of one rat (TNBS-induced colitis; [17]): 0.402 g; gross morphology score of one rat (TNBS-induced colitis; [17]): 1 |
| zinc bacitracin |  |  |  |  |  |  |  |  |  |  |  |  |  |  |  | Phagocytosis [2]: 6.23 |
